Measured values taken from patent US10538555B2, “Macrocyclic inhibitors of the PD-1/PD-L1 and CD80(B7-1)/PD-L1 protein/protein interactions” (BRISTOL-MYERS SQUIBB COMPANY, priority 2014, dated 2020).
Where two headings read alike, the source gives them in different places. *1 amine or outer side, *2 acyl side, *3 side chain or, on linkers, in order; H or OH if unused. Where a SMILES comes first, the peptide text is derived from it. Bridges are numbered along the chain shown (N, C = ends). [ ]: non-standard residue; d: D form. ξ: configuration not given here. Phe(3,4,5-F3) = N[C@@H](Cc1cc(F)c(F)c(F)c1)C(=O)O; Phe(3,4-F2) = N[C@@H](Cc1ccc(F)c(F)c1)C(=O)O; NMePhe(4-Me) = CN[C@@H](Cc1ccc(C)cc1)C(=O)O; Phe(4-F) = N[C@@H](Cc1ccc(F)cc1)C(=O)O; 1Nal = N[C@@H](Cc1cccc2ccccc12)C(=O)O; d(cisHyp) = O=C(O)[C@H]1C[C@@H](O)CN1; Bta = N[C@@H](Cc1csc2ccccc12)C(=O)O; Hyp = O=C(O)[C@@H]1C[C@@H](O)CN1; NMeF = CN[C@@H](Cc1ccccc1)C(=O)O; X1 = O=C([C@H]1COCCN1[*:1])[*:2]; dNMeF = CN[C@H](Cc1ccccc1)C(=O)O; dHyp = O=C(O)[C@H]1C[C@H](O)CN1; NMeNle = CCCC[C@H](NC)C(=O)O; Pip = O=C(O)[C@@H]1CCCCN1; dPip = O=C(O)[C@H]1CCCCN1; hSer = N[C@@H](CCO)C(=O)O; NMeA = CN[C@@H](C)C(=O)O; Orn = NCCC[C@H](N)C(=O)O; dThz = O=C(O)[C@H]1CSCN1; Dab = NCC[C@H](N)C(=O)O; Dap = NC[C@H](N)C(=O)O; ξC = NC(CS)C(=O)O; Sar = CNCC(=O)O

Target: T1, Human PD-L1/PD-1 (Homo sapiens, UniProt Q9NZQ7)
T1 construct: TVMV protease cleavage site (C); made in house; host or cells: HEK293T cells
Assay: HTRF Human PD-L1/PD-1 binding assay (PD-1-Ig/PD-L1-His)
Details: PD-L1-His 10 nM, PD-1-Ig 20 nM
Summary of the method: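 Inhibitors were preincubated 15 min with human PD-L1(18-239)-His (10 nM final), then PD-1(25-167)-Ig (20 nM final) was added for 15 min in dPBS/0.1% BSA/0.05% Tween-20. Eu-cryptate anti-Ig (1 nM) and APC anti-His (20 nM) were added; 665/620 nm ratio read after 30 min.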

[1] = class symbol, read-out: HTRF Human PD-L1/PD-1 Binding Assay IC50 Range

T1 sequence (Q9NZQ7 with tags, fused parts or gaps): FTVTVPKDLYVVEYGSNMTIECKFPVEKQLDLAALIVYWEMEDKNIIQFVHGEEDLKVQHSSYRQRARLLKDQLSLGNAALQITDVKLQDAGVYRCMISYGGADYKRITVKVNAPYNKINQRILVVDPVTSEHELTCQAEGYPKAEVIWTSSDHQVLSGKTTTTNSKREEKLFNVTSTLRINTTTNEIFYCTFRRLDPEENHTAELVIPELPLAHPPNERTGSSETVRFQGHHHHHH

Row | SMILES | IC50 [1] [nM] | IC50 (read-out: HTRF Human PD-L1/PD-1 Binding Assay IC50) [nM]
1 | CCCC[C@H]1C(=O)N2C[C@@H](O)C[C@@H]2C(=O)N[C@@H](CC(=O)O)C(=O)N[C@@H](C(C)C)C(=O)N(C)[C@@H](Cc2ccccc2)C(=O)N[C@@H](CCC(=O)O)C(=O)N2CCOC[C@@H]2C(=O)N[C@@H](Cc2c[nH]c3ccccc23)C(=O)N[C@@H](Cc2ccc(O)cc2)C(=O)N[C@@H](CCCN)C(=O)N[C@H](C(=O)NCC(N)=O)CSCC(=O)N[C@@H](Cc2cc(F)c(F)c(F)c2)C(=O)N(C)[C@@H](Cc2ccccc2)C(=O)N1C [Example 9321] ({CH2CO}-[Phe(3,4,5-F3)][NMeF][NMeNle][dHyp]DV[NMeF]E[X1]WY[Orn]CG-NH2; thioether N-13) | 1 to 9.9 | 
2 | CCCC[C@H]1C(=O)N2C[C@H](O)C[C@@H]2C(=O)N[C@@H](CC(=O)O)C(=O)N[C@@H](C(C)C)C(=O)N(C)[C@@H](Cc2ccccc2)C(=O)N[C@@H](CCC(N)=O)C(=O)N2C[C@H](O)C[C@@H]2C(=O)N[C@@H](Cc2c[nH]c3ccccc23)C(=O)N[C@@H](Cc2ccc(O)cc2)C(=O)N[C@@H](CC(C)C)C(=O)N[C@H](C(=O)NCC(N)=O)CSCC(=O)N[C@@H](Cc2cc(F)c(F)c(F)c2)C(=O)N(C)[C@@H](Cc2ccccc2)C(=O)N1C [Example 9320] ({CH2CO}-[Phe(3,4,5-F3)][NMeF][NMeNle][d(cisHyp)]DV[NMeF]Q[d(cisHyp)]WYLCG-NH2; thioether N-13) | 1 to 9.9 | 
3 | CCCC[C@H]1C(=O)N2C[C@H](O)C[C@@H]2C(=O)N[C@@H](CC(=O)O)C(=O)N[C@@H](C(C)C)C(=O)N(C)[C@@H](Cc2ccccc2)C(=O)N[C@@H](CC(=O)O)C(=O)N2CSC[C@@H]2C(=O)N[C@@H](Cc2c[nH]c3ccccc23)C(=O)N[C@@H](Cc2ccc(O)cc2)C(=O)N[C@@H](CC(C)C)C(=O)N[C@H](C(=O)NCC(N)=O)CSCC(=O)N[C@@H](Cc2cc(F)c(F)c(F)c2)C(=O)N(C)[C@@H](Cc2ccccc2)C(=O)N1C [Example 10149] ({CH2CO}-[Phe(3,4,5-F3)][NMeF][NMeNle][d(cisHyp)]DV[NMeF]D[dThz]WYLCG-NH2; thioether N-13) | 1 to 9.9 | 
4 | CCCC[C@H]1C(=O)N(C)[C@@H](CCCC)C(=O)N[C@@H](CCCN)C(=O)N[C@H](C(=O)NCC(N)=O)CSCC(=O)N[C@@H](Cc2ccc(OC)cc2)C(=O)N(C)[C@@H](C)C(=O)N[C@@H](CCN)C(=O)N2CCC[C@H]2C(=O)N[C@@H](Cc2cnc[nH]2)C(=O)N[C@@H](CCC(=O)O)C(=O)N2C[C@H](O)C[C@H]2C(=O)N[C@@H](Cc2c[nH]c3ccccc23)C(=O)N[C@@H](CC(=O)O)C(=O)N[C@@H](Cc2c[nH]c3ccccc23)C(=O)N1C [Example 7104] ({CH2CO}-Y(Me)[NMeA][Dab]PHE[Hyp]WDW[NMeNle][NMeNle][Orn]CG-NH2; thioether N-14) | 10 to 99.9 | 
5 | CCCC[C@H]1C(=O)N2C[C@H](O)C[C@@H]2C(=O)N[C@@H](CC(=O)O)C(=O)N[C@@H](C(C)C)C(=O)N(C)[C@@H](Cc2ccccc2)C(=O)N[C@@H](Cc2ccc(O)cc2)C(=O)N2C[C@H](O)C[C@@H]2C(=O)N[C@@H](Cc2c[nH]c3ccccc23)C(=O)N[C@@H](Cc2ccc(O)cc2)C(=O)N[C@@H](CN)C(=O)N[C@H](C(=O)NCC(N)=O)CSCC(=O)N[C@@H](Cc2cc(F)c(F)c(F)c2)C(=O)N(C)[C@@H](Cc2ccccc2)C(=O)N1C [Example 9325] ({CH2CO}-[Phe(3,4,5-F3)][NMeF][NMeNle][d(cisHyp)]DV[NMeF]Y[d(cisHyp)]WY[Dap]CG-NH2; thioether N-13) | 1 to 9.9 | 
6 | CCCC[C@H]1C(=O)N(C)[C@@H](CCCC)C(=O)N[C@@H](CCCNC(=N)N)C(=O)NC(C(=O)NCC(N)=O)CSCC(=O)N[C@@H](Cc2ccc(O)cc2)C(=O)N(C)[C@@H](C)C(=O)N[C@@H](CC(N)=O)C(=O)N2CCC[C@H]2C(=O)N[C@@H](CCO)C(=O)N[C@@H](CCO)C(=O)N2CCC[C@H]2C(=O)N[C@@H](Cc2c[nH]c3ccccc23)C(=O)N[C@@H](CO)C(=O)N[C@@H](Cc2csc3ccccc23)C(=O)N1C (stereo partly drawn) [Example 10020] ({CH2CO}-Y[NMeA]NP[hSer][hSer]PWS[Bta][NMeNle][NMeNle]R[ξC]G-NH2; thioether N-14) | 1 to 9.9 | 
7 | CCCC[C@H]1C(=O)N2C[C@H](O)C[C@@H]2C(=O)N[C@@H](CC(=O)O)C(=O)N[C@@H](C(C)C)C(=O)N(C)[C@@H](Cc2ccccc2)C(=O)N[C@@H](CCCN)C(=O)N2CCC[C@@H]2C(=O)N[C@@H](Cc2c[nH]c3ccccc23)C(=O)N[C@@H](Cc2ccc(O)cc2)C(=O)N[C@@H](CCOC)C(=O)N[C@H](C(=O)NCC(N)=O)CSCC(=O)N[C@@H](Cc2cc(F)c(F)c(F)c2)C(=O)N(C)[C@@H](Cc2ccccc2)C(=O)N1C [Example 10191] ({CH2CO}-[Phe(3,4,5-F3)][NMeF][NMeNle][d(cisHyp)]DV[NMeF][Orn][dP]WY[hSer](Me)CG-NH2; thioether N-13) | 1 to 9.9 | 
8 | CCCC[C@H]1C(=O)N(C)[C@@H](CCCC)C(=O)N[C@@H](CCCNC(=N)N)C(=O)N[C@H](C(=O)NCC(N)=O)CSCC(=O)N[C@@H](Cc2ccc(O)cc2)C(=O)N2CCCC[C@H]2C(=O)N[C@@H](CC(=O)O)C(=O)N2CCC[C@H]2C(=O)N[C@@H](Cc2c[nH]cn2)C(=O)N[C@@H](CCCN)C(=O)N2C[C@H](O)C[C@H]2C(=O)N[C@@H](Cc2c[nH]c3ccccc23)C(=O)N[C@@H](CO)C(=O)N[C@@H](Cc2c[nH]c3ccccc23)C(=O)N1C [Example 1537] ({CH2CO}-Y[Pip]DPH[Orn][Hyp]WSW[NMeNle][NMeNle]RCG-NH2; thioether N-14) | 10 to 99.9 | 
9 | CCCC[C@H]1C(=O)N2CCC[C@@H]2C(=O)N[C@@H](CC(=O)O)C(=O)N[C@@H](C(C)C)C(=O)N(C)[C@@H](Cc2ccc(C)cc2)C(=O)N[C@@H](CCCN)C(=O)N2CCC[C@@H]2C(=O)N[C@@H](Cc2c[nH]c3ccccc23)C(=O)N[C@@H](Cc2ccc(O)cc2)C(=O)N[C@@H](CC(C)C)C(=O)N[C@H](C(=O)NCC(N)=O)CSCC(=O)N[C@@H](Cc2ccc(F)cc2)C(=O)N(C)[C@@H](Cc2ccccc2)C(=O)N1C [Example 10112] ({CH2CO}-[Phe(4-F)][NMeF][NMeNle][dP]DV[NMePhe(4-Me)][Orn][dP]WYLCG-NH2; thioether N-13) | 100 to 990 | 
10 | CCCC[C@H]1C(=O)N(C)CC(=O)N[C@@H](CC(=O)O)C(=O)N[C@@H](C(C)C)C(=O)N(C)[C@@H](Cc2ccccc2)C(=O)N[C@@H](Cc2ccc(O)cc2)C(=O)N(C)CC(=O)N[C@@H](Cc2c[nH]c3ccccc23)C(=O)N[C@@H](Cc2ccc(O)cc2)C(=O)N[C@@H](CC(C)C)C(=O)N[C@H](C(=O)NCC(N)=O)CSCC(=O)N[C@@H](Cc2cccc3ccccc23)C(=O)N(C)[C@@H](Cc2ccccc2)C(=O)N1C [Example 3235] ({CH2CO}-[1Nal][NMeF][NMeNle][Sar]DV[NMeF]Y[Sar]WYLCG-NH2; thioether N-13) | 1000 to 10000 | 
11 | CCCC[C@H]1C(=O)N(C)[C@@H](CCCC)C(=O)N[C@@H](CCCNC(=N)N)C(=O)N[C@H](C(=O)NCC(N)=O)CSCC(=O)N[C@@H](Cc2ccc(O)cc2)C(=O)N(C)[C@@H](C)C(=O)N[C@@H](CC(=O)O)C(=O)N2CCC[C@H]2C(=O)N[C@@H](Cc2c[nH]cn2)C(=O)N[C@@H](CCCCN)C(=O)N2C[C@H](O)C[C@H]2C(=O)N[C@@H](Cc2c[nH]c3ccccc23)C(=O)N[C@@H](CCCCN)C(=O)N[C@@H](Cc2csc3ccccc23)C(=O)N1C [Example 5256] | 10 to 99.9 | 
12 | CCCC[C@H]1C(=O)N(C)CC(=O)N[C@@H](CO)C(=O)N[C@@H](C)C(=O)N(C)[C@@H](Cc2ccccc2)C(=O)N[C@@H](Cc2ccc(O)cc2)C(=O)N2CCCC[C@@H]2C(=O)N[C@@H](Cc2c[nH]c3ccccc23)C(=O)N[C@@H](Cc2ccc(O)cc2)C(=O)N[C@@H](CC(C)C)C(=O)N[C@H](C(=O)NCC(N)=O)CSCC(=O)N[C@@H](Cc2ccccc2)C(=O)N(C)[C@@H](Cc2ccccc2)C(=O)N1C [Example 10057] ({CH2CO}-F[NMeF][NMeNle][Sar]SA[NMeF]Y[dPip]WYLCG-NH2; thioether N-13) |  | 215
13 | CCCC[C@H]1C(=O)N2C[C@H](O)C[C@@H]2C(=O)N[C@@H](CC(=O)O)C(=O)N[C@@H](C(C)C)C(=O)N(C)[C@H](Cc2ccccc2)C(=O)N[C@@H](CCN)C(=O)N2C[C@H](O)C[C@@H]2C(=O)N[C@@H](Cc2c[nH]c3ccccc23)C(=O)N[C@@H](Cc2ccc(O)cc2)C(=O)N[C@@H](CC(C)C)C(=O)N[C@H](C(=O)NCC(N)=O)CSCC(=O)N[C@@H](Cc2ccc(F)c(F)c2)C(=O)N(C)[C@@H](Cc2ccccc2)C(=O)N1C [Example 9299] ({CH2CO}-[Phe(3,4-F2)][NMeF][NMeNle][d(cisHyp)]DV[dNMeF][Dab][d(cisHyp)]WYLCG-NH2; thioether N-13) | 1 to 9.9 | 
14 | CCCC[C@H]1C(=O)N(C)[C@@H](C)C(=O)N[C@@H](CCCNC(=N)N)C(=O)NC(C(=O)NCC(N)=O)CSCC(=O)N[C@@H](Cc2ccc(O)cc2)C(=O)N(C)[C@@H](C)C(=O)N[C@@H](CC(N)=O)C(=O)N2CCC[C@H]2C(=O)N[C@@H](Cc2cnc[nH]2)C(=O)N[C@H](CO)C(=O)N2C[C@H](O)C[C@H]2C(=O)N[C@@H](Cc2c[nH]c3ccccc23)C(=O)N[C@@H](CO)C(=O)N[C@@H](Cc2c[nH]c3ccccc23)C(=O)N1C (stereo partly drawn) [Example 9119] ({CH2CO}-Y[NMeA]NPH[dS][Hyp]WSW[NMeNle][NMeA]R[ξC]G-NH2; thioether N-14) | 10 to 99.9 | 
15 | CCCC[C@H]1C(=O)N2CCC[C@@H]2C(=O)N2CCCC[C@H]2C(=O)N[C@@H](C(C)C)C(=O)N(C)[C@@H](Cc2ccccc2)C(=O)N[C@@H](Cc2ccc(O)cc2)C(=O)N2CCCC[C@@H]2C(=O)N[C@@H](Cc2c[nH]c3ccccc23)C(=O)N[C@@H](Cc2ccc(O)cc2)C(=O)N[C@@H](CC(C)C)C(=O)N[C@H](C(=O)NCC(N)=O)CSCC(=O)N[C@@H](Cc2cc(F)c(F)c(F)c2)C(=O)N(C)[C@@H](Cc2ccccc2)C(=O)N1C [Example 3217] ({CH2CO}-[Phe(3,4,5-F3)][NMeF][NMeNle][dP][Pip]V[NMeF]Y[dPip]WYLCG-NH2; thioether N-13) | 10 to 99.9 | 
